This note sets out measurements from ChEMBL document CHEMBL3886351, “TrkA kinase inhibitors, compositions and methods thereof” (2015).

In the assay the target is High affinity nerve growth factor receptor (Homo sapiens, UniProt P04629). Briefly: Kinase Activity Assay: TrkA kinase activity was measured as the ability of the enzyme to phosphorylate a fluorescently labeled peptide substrate. Buffer salts, reagents, and fluorescently labeled peptides were purchased from Carna Biosciences and were of the highest quality available (QSS Assist TRKA_MSA Kit). Enzyme was purchased from Cell Signaling, and was used without further purification. 384-well round bottom assay plates were prepared by the addition of 200 nl of a DMSO solution of compound at various concentrations to final inhibitor concentrations ranging from 100 μM to […]. Next, assay buffer (10 μl) containing substrate and ATP were added, followed by addition of 10 μl of enzyme in assay buffer. Final assays concentrations were: [E]=0.37 nM, [S]=1 μM, [ATP]=2 mM. The reactions were incubated at room temperature for 3 hours resulting in approximately 15% substrate phosphorylation and were terminated by the addition of 5 μl of stop buffer.
High affinity nerve growth factor receptor, sequence (P04629 whole entry): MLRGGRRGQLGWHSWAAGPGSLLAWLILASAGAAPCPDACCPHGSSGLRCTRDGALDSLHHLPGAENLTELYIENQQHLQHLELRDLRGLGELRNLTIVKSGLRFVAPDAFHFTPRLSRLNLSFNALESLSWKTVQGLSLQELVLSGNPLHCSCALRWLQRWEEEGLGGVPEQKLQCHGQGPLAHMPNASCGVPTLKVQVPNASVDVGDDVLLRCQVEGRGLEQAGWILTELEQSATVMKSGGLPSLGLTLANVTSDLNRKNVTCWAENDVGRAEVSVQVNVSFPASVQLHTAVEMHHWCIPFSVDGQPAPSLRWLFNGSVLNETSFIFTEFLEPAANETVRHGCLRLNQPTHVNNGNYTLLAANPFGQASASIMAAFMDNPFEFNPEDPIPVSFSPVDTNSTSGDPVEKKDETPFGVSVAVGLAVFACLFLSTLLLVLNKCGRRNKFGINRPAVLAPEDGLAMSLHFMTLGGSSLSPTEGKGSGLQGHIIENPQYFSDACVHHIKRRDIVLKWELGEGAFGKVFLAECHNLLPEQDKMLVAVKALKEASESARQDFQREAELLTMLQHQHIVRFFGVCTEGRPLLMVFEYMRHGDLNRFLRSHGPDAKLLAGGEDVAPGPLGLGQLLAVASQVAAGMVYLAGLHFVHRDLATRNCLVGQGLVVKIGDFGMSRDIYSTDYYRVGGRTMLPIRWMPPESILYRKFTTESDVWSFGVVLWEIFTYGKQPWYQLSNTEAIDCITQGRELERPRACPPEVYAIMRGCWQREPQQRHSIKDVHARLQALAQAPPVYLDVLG
As to `CC(C)N(Cc1cccc(-c2nccs2)c1)C(=O)Nc1ccc(OC(F)(F)F)cc1`, the EC50 – broadly, the concentration at which the effect is half-maximal – was determined as 119 nM. To `C#CC(C)N(Cc1cccc(-c2nccs2)c1)C(=O)Nc1ccc(OC(F)(F)F)cc1` (configuration not stated) belongs 48 nM; to `CC(C)N(Cc1cccc(-c2nccs2)c1)C(=O)Nc1cnc(C(C)(C)C)nc1`, 102 nM; to `CC(C)N(Cc1cc(-c2nccs2)ccn1)C(=O)Nc1ccc(OC(F)(F)F)cc1`, 8080 nM.

On to `CC1(C)CCN(c2ccc(SC(F)(F)F)cc2)C(=O)N1Cc1c[nH]c2ncccc12`, for which the EC50 turned out to be 19.7 nM. Consider `CC(C)N(Cc1n[nH]c2ncccc12)C(=O)Nc1ccc(OC(F)(F)F)cc1`, for which the concentration for a half-maximal effect (EC50) was 141 nM. The result for `CC(C)N(Cc1n[nH]c2ncccc12)C(=O)Nc1ccc(SC(F)(F)F)cc1` reads 24.9 nM.
